# Measured values: US20260285850A1, “SUBSTITUTED OXAZOLIDINONES AND IMIDAZOLINONES AS HERBICIDES” (FMC CORPORATION, priority 2023, published 2026)
# Columns and labels:
# Assay type in all cases: in vivo
# [1] = test system: ragweed (common ragweed, Ambrosia artemisiifolia); experiment: Test A postemergence application, visual injury rating 0-100
# Method in brief: (§1)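 Compound in a non-phytotoxic, surfactant-containing solvent is applied either as a directed soil spray before seedlings emerge or onto emerged plants 2-10 cm tall; pots hold a loam-sand blend. Plants grow 10 days under greenhouse conditions and are rated by eye against untreated controls (0 no effect, 100 complete control).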
# corn (Zea mays) [2] = experiment: as above
# Method in brief: as §1
# [3] = test system: galium (catchweed bedstraw, Galium aparine); experiment: as above
# Method in brief: as §1
# [4] = test system: palmer (palmer amaranth, palmer pigweed, Amaranthus palmeri); experiment: as above
# Method in brief: as §1
# [5] = test system: ryegrass, Italian (italian ryegrass, Lolium multiflorum); experiment: as above
# Method in brief: as §1
# [6] = test system: oat, wild (wild oat, Avena fatua); experiment: as above
# Method in brief: as §1
# soybean (Glycine max) [7] = experiment: as above
# Method in brief: as §1
# [8] = test system: blackgrass (Alopecurus myosuroides); experiment: as above
# Method in brief: as §1
# [9] = test system: barnyardgrass (Echinochloa crus-galli); experiment: as above
# Method in brief: as §1
# [10] = test system: wheat (Triticum aestivum); experiment: as above
# Method in brief: as §1
# kochia (Bassia scoparia) [11] = experiment: as above
# Method in brief: as §1
# [12] = test system: horseweed (Erigeron canadensis); experiment: as above
# Method in brief: as §1
# [13] = test system: green foxtail (Setaria viridis); experiment: as above
# Method in brief: as §1
# [14] = test system: ducksalad (Heteranthera limosa); experiment: Test B flooded paddy test, visual plant response rating 0-100; conditions: 250 g ai/ha, Flood, applied to paddy water, evaluated after 13 days
# Method in brief: (§2)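 Treatment occurs at the 2-leaf stage by adding compound to floodwater standing 3 cm above the soil, a level kept for the whole test. Plants stay in the greenhouse 13 days before visual comparison with controls.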
# rice (Oryza sativa) = experiment: as above; conditions: 250 g ai/ha, Flood, applied to paddy water, evaluated after 13 days
# Method in brief: as §2
# [15] = test system: barnyardgrass (Echinochloa crusgalli); experiment: as above; conditions: 250 g ai/ha, Flood, applied to paddy water, evaluated after 13 days
# Method in brief: as §2
# [16] = test system: sedge, umbrella (small-flower umbrella sedge, Cyperus difformis); experiment: as above; conditions: 250 g ai/ha, Flood, applied to paddy water, evaluated after 13 days
# Method in brief: as §2
# [17] = test system: ragweed (common ragweed, Ambrosia artemisiifolia); experiment: Test A preemergence soil spray, visual injury rating 0-100; conditions: 10 days
# Method in brief: as §1
# corn (Zea mays) [18] = experiment: as above; conditions: 10 days
# Method in brief: as §1
# [19] = test system: palmer (palmer amaranth, palmer pigweed, Amaranthus palmeri); experiment: as above; conditions: 10 days
# Method in brief: as §1
# [20] = test system: ryegrass, Italian (italian ryegrass, Lolium multiflorum); experiment: as above; conditions: 10 days
# Method in brief: as §1
# [21] = test system: oat, wild (wild oat, Avena fatua); experiment: as above; conditions: 10 days
# Method in brief: as §1
# soybean (Glycine max) [22] = experiment: as above; conditions: 10 days
# Method in brief: as §1
# [23] = test system: blackgrass (Alopecurus myosuroides); experiment: as above; conditions: 10 days
# Method in brief: as §1
# [24] = test system: barnyardgrass (Echinochloa crus-galli); experiment: as above; conditions: 10 days
# Method in brief: as §1
# [25] = test system: wheat (Triticum aestivum); experiment: as above; conditions: 10 days
# Method in brief: as §1
# kochia (Bassia scoparia) [26] = experiment: as above; conditions: 10 days
# Method in brief: as §1
# [27] = test system: green foxtail (Setaria viridis); experiment: as above; conditions: 10 days
# Method in brief: as §1
# [28] = 62 g ai/ha, postemergence, 10 days, 0 = no effect, 100 = complete control
# [29] = Postemergence, 16 g ai/ha, greenhouse 10 days, 0 no effect, 100 complete control
# [30] = 62 g ai/ha, 0 = no effect, 100 = complete control
smiles,measurement,setting,value
COC(=O)C1C=CC(NC(=O)C2(C)CN(c3cc(F)cc(F)c3)C(=O)O2)C1 (stereo not shown) [Compound 89],Ragweed plant response rating (0-100),[1]; [28],70
same,Ragweed plant response rating (0 to 100 scale),[1]; [29],50
same,Corn plant response rating (0-100),corn (Zea mays) [2]; [28],100
same,Corn plant response rating (0 to 100 scale),corn (Zea mays) [2]; [29],90
same,Galium plant response rating (0-100),[3]; [28],100
same,Galium plant response rating (0 to 100 scale),[3]; [29],100
same,"Pigweed, Palmer plant response rating (0-100)",[4]; [28],90
same,"Pigweed, Palmer plant response rating (0 to 100 scale)",[4]; [29],70
same,"Ryegrass, Italian plant response rating (0-100)",[5]; [28],90
same,"Ryegrass, Italian plant response rating (0 to 100 scale)",[5]; [29],90
same,"Oat, Wild plant response rating (0-100)",[6]; [28],90
same,"Oat, Wild plant response rating (0 to 100 scale)",[6]; [29],90
same,Soybean plant response rating (0-100),soybean (Glycine max) [7]; [28],50
same,Soybean plant response rating (0 to 100 scale),soybean (Glycine max) [7]; [29],50
same,Blackgrass plant response rating (0-100),[8]; [28],90
same,Blackgrass plant response rating (0 to 100 scale),[8]; [29],90
same,Barnyardgrass plant response rating (0-100),[9]; [28],100
same,Barnyardgrass plant response rating (0 to 100 scale),[9]; [29],90
same,Wheat plant response rating (0-100),[10]; [28],90
same,Wheat plant response rating (0 to 100 scale),[10]; [29],90
same,Kochia plant response rating (0-100),kochia (Bassia scoparia) [11]; [28],90
same,Kochia plant response rating (0 to 100 scale),kochia (Bassia scoparia) [11]; [29],80
same,Horseweed plant response rating (0-100),[12]; [28],80
same,Horseweed plant response rating (0 to 100 scale),[12]; [29],20
same,"Foxtail, Green plant response rating (0-100)",[13]; [28],90
same,"Foxtail, Green plant response rating (0 to 100 scale)",[13]; [29],60
same,"Plant response rating, Ducksalad (0 to 100 scale, 0 is no effect and 100 is complete control)",[14],70
same,"Plant response rating, Rice (0 to 100 scale, 0 is no effect and 100 is complete control)",rice (Oryza sativa),25
same,"Plant response rating, Barnyardgrass (0 to 100 scale, 0 is no effect and 100 is complete control)",[15],95
same,"Plant response rating, Sedge, Umbrella (0 to 100 scale, 0 is no effect and 100 is complete control)",[16],95
same,Ragweed plant response rating,"[17]; 16 g ai/ha, 0 to 100 scale",0
same,Ragweed plant response rating (0-100),[17]; [30],30
same,Corn plant response rating,"corn (Zea mays) [18]; 16 g ai/ha, 0 to 100 scale",30
same,Corn plant response rating (0-100),corn (Zea mays) [18]; [30],100
same,"Pigweed, Palmer plant response rating","[19]; 16 g ai/ha, 0 to 100 scale",80
same,"Pigweed, Palmer plant response rating (0-100)",[19]; [30],100
same,"Ryegrass, Italian plant response rating","[20]; 16 g ai/ha, 0 to 100 scale",80
same,"Ryegrass, Italian plant response rating (0-100)",[20]; [30],90
same,"Oat, Wild plant response rating","[21]; 16 g ai/ha, 0 to 100 scale",80
same,"Oat, Wild plant response rating (0-100)",[21]; [30],90
same,Soybean plant response rating,"soybean (Glycine max) [22]; 16 g ai/ha, 0 to 100 scale",40
same,Soybean plant response rating (0-100),soybean (Glycine max) [22]; [30],80
same,Blackgrass plant response rating,"[23]; 16 g ai/ha, 0 to 100 scale",30
same,Blackgrass plant response rating (0-100),[23]; [30],70
same,Barnyardgrass plant response rating,"[24]; 16 g ai/ha, 0 to 100 scale",70
same,Barnyardgrass plant response rating (0-100),[24]; [30],100
same,Wheat plant response rating,"[25]; 16 g ai/ha, 0 to 100 scale",90
same,Wheat plant response rating (0-100),[25]; [30],90
same,Kochia plant response rating,"kochia (Bassia scoparia) [26]; 16 g ai/ha, 0 to 100 scale",90
same,Kochia plant response rating (0-100),kochia (Bassia scoparia) [26]; [30],100
same,"Foxtail, Green plant response rating","[27]; 16 g ai/ha, 0 to 100 scale",10
same,"Foxtail, Green plant response rating (0-100)",[27]; [30],100
